# Measurements as given in US11109593B2, “Isoxazolin-5-one derivative and herbicide containing same as active ingredient” (HOKKO CHEMICAL INDUSTRY CO., LTD., priority 2017, dated 2021).
# Tested on: Chenopodium album
# Assay: Test Example 3: herbicidal effect test by treatment of dry field farming soil (one day after seeding)
# Assay type: in vivo
# Settings: 120 g/10a active ingredient, evaluated 14 days after treatment
# Method in brief: (§1)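 Herbicidal rate (%) = {1 − treated/untreated mean plant dry weight} × 100, scored 14 days after spraying, duplicate pots per concentration. Emulsified compound was water-diluted and applied to soil surface one day post-seeding at 120 g a.i. per 10 ares.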
row,Compound,"herbicidal rate, Chenopodium album"
1,C=C(C)Cn1oc(=O)c(Cc2ccccc2NS(=O)(=O)C(F)(F)F)c1C [Compound 1-137],40%
2,CCCC(C)n1oc(=O)c(Cc2ccccc2N(C(=O)C(C)C)S(=O)(=O)C(F)(F)F)c1C (stereo not drawn) [Compound 1-334],40%
3,CCC(C)n1oc(=O)c(Cc2ccccc2N(C(=O)Cc2ccccc2)S(=O)(=O)C(F)(F)F)c1C (stereo not drawn) [Compound 1-504],90%

# Tested on: Echinochloa crus-galli
# Assay: as above
# Assay type: in vivo
# Settings: 120 g/10a active ingredient, evaluated 14 days after treatment
# Method in brief: as §1
row,Compound,"herbicidal rate, Echinochloa crus-galli"
1,C=C(C)Cn1oc(=O)c(Cc2ccccc2NS(=O)(=O)C(F)(F)F)c1C [Compound 1-137],70%
2,CCCC(C)n1oc(=O)c(Cc2ccccc2N(C(=O)C(C)C)S(=O)(=O)C(F)(F)F)c1C (stereo not drawn) [Compound 1-334],90%
3,CCC(C)n1oc(=O)c(Cc2ccccc2N(C(=O)Cc2ccccc2)S(=O)(=O)C(F)(F)F)c1C (stereo not drawn) [Compound 1-504],90%

# Tested on: Amaranthus viridis
# Assay: as above
# Assay type: in vivo
# Settings: 120 g/10a active ingredient, evaluated 14 days after treatment
# Method in brief: as §1
row,Compound,"herbicidal rate, Amaranthus viridis"
1,C=C(C)Cn1oc(=O)c(Cc2ccccc2NS(=O)(=O)C(F)(F)F)c1C [Compound 1-137],40%
2,CCCC(C)n1oc(=O)c(Cc2ccccc2N(C(=O)C(C)C)S(=O)(=O)C(F)(F)F)c1C (stereo not drawn) [Compound 1-334],50%
3,CCC(C)n1oc(=O)c(Cc2ccccc2N(C(=O)Cc2ccccc2)S(=O)(=O)C(F)(F)F)c1C (stereo not drawn) [Compound 1-504],90%

# Tested on: southern crabgrass
# Assay: as above
# Assay type: in vivo
# Settings: 120 g/10a active ingredient, evaluated 14 days after treatment
# Method in brief: as §1
row,Compound,"herbicidal rate, southern crabgrass"
1,C=C(C)Cn1oc(=O)c(Cc2ccccc2NS(=O)(=O)C(F)(F)F)c1C [Compound 1-137],50%
2,CCCC(C)n1oc(=O)c(Cc2ccccc2N(C(=O)C(C)C)S(=O)(=O)C(F)(F)F)c1C (stereo not drawn) [Compound 1-334],70%
3,CCC(C)n1oc(=O)c(Cc2ccccc2N(C(=O)Cc2ccccc2)S(=O)(=O)C(F)(F)F)c1C (stereo not drawn) [Compound 1-504],90%

# Tested on: Chenopodium album
# Assay: Test Example 4: herbicidal effect test by treatment of leave and stem in dry field farming (seven days after seeding)
# Assay type: in vivo
# Settings: 120 g/10a active ingredient; emulsion sprayed seven days after seeding; evaluated 14 days after treatment
# Method in brief: (§2)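 Twenty seeds per species were mixed into the top 1 cm of alluvial soil in 36 cm^2 pots; emulsions were sprayed seven days after seeding at 100 L per 10 ares (120 g active ingredient per 10 ares). Herbicidal rate (%) = {1 − treated/untreated mean dry weight} × 100, 14 days after treatment, duplicate.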
row,Compound,"herbicidal effect (herbicidal rate), Chenopodium album"
1,C=C(C)Cn1oc(=O)c(Cc2ccccc2NS(=O)(=O)C(F)(F)F)c1C [Compound 1-137],0%
2,CCCC(C)n1oc(=O)c(Cc2ccccc2N(C(=O)C(C)C)S(=O)(=O)C(F)(F)F)c1C (stereo not drawn) [Compound 1-334],60%
3,CCC(C)n1oc(=O)c(Cc2ccccc2N(C(=O)Cc2ccccc2)S(=O)(=O)C(F)(F)F)c1C (stereo not drawn) [Compound 1-504],40%

# Tested on: Echinochloa crus-galli
# Assay: as above
# Assay type: in vivo
# Settings: 120 g/10a active ingredient; emulsion sprayed seven days after seeding; evaluated 14 days after treatment
# Method in brief: as §2
row,Compound,"herbicidal effect (herbicidal rate), Echinochloa crus-galli"
1,C=C(C)Cn1oc(=O)c(Cc2ccccc2NS(=O)(=O)C(F)(F)F)c1C [Compound 1-137],80%
2,CCCC(C)n1oc(=O)c(Cc2ccccc2N(C(=O)C(C)C)S(=O)(=O)C(F)(F)F)c1C (stereo not drawn) [Compound 1-334],90%
3,CCC(C)n1oc(=O)c(Cc2ccccc2N(C(=O)Cc2ccccc2)S(=O)(=O)C(F)(F)F)c1C (stereo not drawn) [Compound 1-504],90%

# Tested on: Amaranthus viridis
# Assay: as above
# Assay type: in vivo
# Settings: 120 g/10a active ingredient; emulsion sprayed seven days after seeding; evaluated 14 days after treatment
# Method in brief: as §2
row,Compound,"herbicidal effect (herbicidal rate), Amaranthus viridis"
1,C=C(C)Cn1oc(=O)c(Cc2ccccc2NS(=O)(=O)C(F)(F)F)c1C [Compound 1-137],80%
2,CCCC(C)n1oc(=O)c(Cc2ccccc2N(C(=O)C(C)C)S(=O)(=O)C(F)(F)F)c1C (stereo not drawn) [Compound 1-334],60%
3,CCC(C)n1oc(=O)c(Cc2ccccc2N(C(=O)Cc2ccccc2)S(=O)(=O)C(F)(F)F)c1C (stereo not drawn) [Compound 1-504],40%

# Tested on: southern crabgrass
# Assay: as above
# Assay type: in vivo
# Settings: 120 g/10a active ingredient; emulsion sprayed seven days after seeding; evaluated 14 days after treatment
# Method in brief: as §2
row,Compound,"herbicidal effect (herbicidal rate), southern crabgrass"
1,C=C(C)Cn1oc(=O)c(Cc2ccccc2NS(=O)(=O)C(F)(F)F)c1C [Compound 1-137],0%
2,CCCC(C)n1oc(=O)c(Cc2ccccc2N(C(=O)C(C)C)S(=O)(=O)C(F)(F)F)c1C (stereo not drawn) [Compound 1-334],90%
3,CCC(C)n1oc(=O)c(Cc2ccccc2N(C(=O)Cc2ccccc2)S(=O)(=O)C(F)(F)F)c1C (stereo not drawn) [Compound 1-504],90%

# Tested on: broad leaf weeds (Lindernia pyxidaria and Monochoria vaginalis)
# Assay: Test Example 2: herbicidal effect test by treatment during growing period in paddy rice cultivation (seven days after seeding)
# Assay type: in vivo
# Settings: Lindernia pyxidaria, 120 g/10a active ingredient, assessed 14 days after treatment, dry weight vs untreated area
# Method in brief: (§3)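 Emulsion formulations, diluted in water, applied dropwise to flooded pots (about 3 cm water) 7 days post-seeding at 120 g a.i./10 ares. Weeds sown 30 seeds each, 0–1 cm deep in puddled paddy soil; greenhouse. Readout: % reduction in plant dry weight vs untreated, day 14, duplicates.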
row,Compound,Herbicidal rate (%) Lindernia pyxidaria
1,C=C(C)Cn1oc(=O)c(Cc2ccccc2NS(=O)(=O)C(F)(F)F)c1C [Compound 1-137],40%
2,CCCC(C)n1oc(=O)c(Cc2ccccc2N(C(=O)C(C)C)S(=O)(=O)C(F)(F)F)c1C (stereo not drawn) [Compound 1-334],70%
3,CCC(C)n1oc(=O)c(Cc2ccccc2N(C(=O)Cc2ccccc2)S(=O)(=O)C(F)(F)F)c1C (stereo not drawn) [Compound 1-504],90%

# Same assay, conditions: Monochoria vaginalis, 120 g/10a active ingredient, assessed 14 days after treatment, dry weight vs untreated area
row,Compound,Herbicidal rate (%) Monochoria vaginalis
1,C=C(C)Cn1oc(=O)c(Cc2ccccc2NS(=O)(=O)C(F)(F)F)c1C [Compound 1-137],60%
2,CCCC(C)n1oc(=O)c(Cc2ccccc2N(C(=O)C(C)C)S(=O)(=O)C(F)(F)F)c1C (stereo not drawn) [Compound 1-334],70%
3,CCC(C)n1oc(=O)c(Cc2ccccc2N(C(=O)Cc2ccccc2)S(=O)(=O)C(F)(F)F)c1C (stereo not drawn) [Compound 1-504],90%

# Tested on: Echinochloa crus-galli
# Assay: as above
# Assay type: in vivo
# Settings: 120 g/10a active ingredient, assessed 14 days after treatment, dry weight vs untreated area
# Method in brief: as §3
row,Compound,Herbicidal rate (%) Echinochloa crus-galli
1,C=C(C)Cn1oc(=O)c(Cc2ccccc2NS(=O)(=O)C(F)(F)F)c1C [Compound 1-137],90%
2,CCCC(C)n1oc(=O)c(Cc2ccccc2N(C(=O)C(C)C)S(=O)(=O)C(F)(F)F)c1C (stereo not drawn) [Compound 1-334],100%
3,CCC(C)n1oc(=O)c(Cc2ccccc2N(C(=O)Cc2ccccc2)S(=O)(=O)C(F)(F)F)c1C (stereo not drawn) [Compound 1-504],90%

# Tested on: Scirpus juncoides
# Assay: as above
# Assay type: in vivo
# Settings: 120 g/10a active ingredient, assessed 14 days after treatment, dry weight vs untreated area
# Method in brief: as §3
row,Compound,Herbicidal rate (%) Scirpus juncoides
1,C=C(C)Cn1oc(=O)c(Cc2ccccc2NS(=O)(=O)C(F)(F)F)c1C [Compound 1-137],80%
2,CCCC(C)n1oc(=O)c(Cc2ccccc2N(C(=O)C(C)C)S(=O)(=O)C(F)(F)F)c1C (stereo not drawn) [Compound 1-334],90%
3,CCC(C)n1oc(=O)c(Cc2ccccc2N(C(=O)Cc2ccccc2)S(=O)(=O)C(F)(F)F)c1C (stereo not drawn) [Compound 1-504],90%

# Tested on: broad leaf weeds (Lindernia pyxidaria and Monochoria vaginalis)
# Assay: Test Example 1: herbicidal effect test by treatment of rice paddy soil (immediately after seeding)
# Assay type: in vivo
# Settings: Lindernia pyxidaria, 120 g/10a active ingredient, dry weight vs untreated area, 14 days after treatment
# Method in brief: (§4)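 Applied at 120 g a.i./10 ares as diluted emulsion dropped into flooded (~3 cm) paddy soil pots right after sowing seeds 0–1 cm deep; greenhouse, two replicates. At day 14, dry weight of treated versus untreated plants gives % herbicidal rate.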
row,Compound,Herbicidal rate (%) Lindernia pyxidaria
1,C=C(C)Cn1oc(=O)c(Cc2ccccc2NS(=O)(=O)C(F)(F)F)c1C [Compound 1-137],90%
2,CCCC(C)n1oc(=O)c(Cc2ccccc2N(C(=O)C(C)C)S(=O)(=O)C(F)(F)F)c1C (stereo not drawn) [Compound 1-334],70%
3,CCC(C)n1oc(=O)c(Cc2ccccc2N(C(=O)Cc2ccccc2)S(=O)(=O)C(F)(F)F)c1C (stereo not drawn) [Compound 1-504],90%

# Same assay, conditions: Monochoria vaginalis, 120 g/10a active ingredient, dry weight vs untreated area, 14 days after treatment
row,Compound,Herbicidal rate (%) Monochoria vaginalis
1,C=C(C)Cn1oc(=O)c(Cc2ccccc2NS(=O)(=O)C(F)(F)F)c1C [Compound 1-137],70%
2,CCCC(C)n1oc(=O)c(Cc2ccccc2N(C(=O)C(C)C)S(=O)(=O)C(F)(F)F)c1C (stereo not drawn) [Compound 1-334],80%
3,CCC(C)n1oc(=O)c(Cc2ccccc2N(C(=O)Cc2ccccc2)S(=O)(=O)C(F)(F)F)c1C (stereo not drawn) [Compound 1-504],90%

# Tested on: Echinochloa crus-galli
# Assay: as above
# Assay type: in vivo
# Settings: 120 g/10a active ingredient, dry weight vs untreated area, 14 days after treatment
# Method in brief: as §4
row,Compound,Herbicidal rate (%) Echinochloa crus-galli
1,C=C(C)Cn1oc(=O)c(Cc2ccccc2NS(=O)(=O)C(F)(F)F)c1C [Compound 1-137],90%
2,CCCC(C)n1oc(=O)c(Cc2ccccc2N(C(=O)C(C)C)S(=O)(=O)C(F)(F)F)c1C (stereo not drawn) [Compound 1-334],100%
3,CCC(C)n1oc(=O)c(Cc2ccccc2N(C(=O)Cc2ccccc2)S(=O)(=O)C(F)(F)F)c1C (stereo not drawn) [Compound 1-504],90%

# Tested on: Scirpus juncoides
# Assay: as above
# Assay type: in vivo
# Settings: 120 g/10a active ingredient, dry weight vs untreated area, 14 days after treatment
# Method in brief: as §4
row,Compound,Herbicidal rate (%) Scirpus juncoides
1,C=C(C)Cn1oc(=O)c(Cc2ccccc2NS(=O)(=O)C(F)(F)F)c1C [Compound 1-137],90%
2,CCCC(C)n1oc(=O)c(Cc2ccccc2N(C(=O)C(C)C)S(=O)(=O)C(F)(F)F)c1C (stereo not drawn) [Compound 1-334],90%
3,CCC(C)n1oc(=O)c(Cc2ccccc2N(C(=O)Cc2ccccc2)S(=O)(=O)C(F)(F)F)c1C (stereo not drawn) [Compound 1-504],90%
